According to the NIST ThermoML archive (doi:10.1021/je901085t):

Experiments:
[1] = wn = mass fraction of the nth substance listed; conditions: Capillary rise
[2] = Capillary rise

CC(F)F [1,1-difluoroethane] + CCC
[1]
Conditions | surface tension liquid-gas [mN/m]
248.15 K, w2 = 0.3497 | 14.65
248.24 K, w2 = 0.2008 | 15.35
248.37 K, w2 = 0.4922 | 13.88
253.14 K, w2 = 0.3497 | 13.96
253.15 K, w2 = 0.4922 | 13.25
253.19 K, w2 = 0.2008 | 14.7
258.1 K, w2 = 0.3497 | 13.22
258.1 K, w2 = 0.4922 | 12.55
258.15 K, w2 = 0.2008 | 14.02
263.1 K, w2 = 0.3497 | 12.43
263.18 K, w2 = 0.4922 | 11.93
263.19 K, w2 = 0.2008 | 13.32
268.13 K, w2 = 0.3497 | 11.85
268.16 K, w2 = 0.4922 | 11.19
268.19 K, w2 = 0.2008 | 12.72
273.08 K, w2 = 0.4922 | 10.49
273.15 K, w2 = 0.3497 | 11.2
273.19 K, w2 = 0.2008 | 12.04
278.16 K, w2 = 0.3497 | 10.31
278.18 K, w2 = 0.2008 | 11.35
278.18 K, w2 = 0.4922 | 9.895
283.16 K, w2 = 0.2008 | 10.48
283.16 K, w2 = 0.3497 | 9.754
283.18 K, w2 = 0.4922 | 9.111
288.15 K, w2 = 0.3497 | 9.186
288.17 K, w2 = 0.4922 | 8.51
288.18 K, w2 = 0.2008 | 9.752
293.13 K, w2 = 0.3497 | 8.519
293.16 K, w2 = 0.2008 | 9.136
293.16 K, w2 = 0.4922 | 7.919
298.1 K, w2 = 0.2008 | 8.465
298.1 K, w2 = 0.3497 | 7.79
298.15 K, w2 = 0.4922 | 7.255
303.15 K, w2 = 0.3497 | 6.986
303.18 K, w2 = 0.2008 | 7.708
303.2 K, w2 = 0.4922 | 6.616
308.11 K, w2 = 0.2008 | 7.125
308.11 K, w2 = 0.3497 | 6.317
308.46 K, w2 = 0.4922 | 5.985
313.16 K, w2 = 0.4922 | 5.421
313.18 K, w2 = 0.3497 | 5.675
313.19 K, w2 = 0.2008 | 6.518
318.13 K, w2 = 0.3497 | 5.133
318.14 K, w2 = 0.2008 | 5.897
318.14 K, w2 = 0.4922 | 4.913
323.16 K, w2 = 0.3497 | 4.602
323.17 K, w2 = 0.4922 | 4.269
323.18 K, w2 = 0.2008 | 5.202
328.12 K, w2 = 0.2008 | 4.614
328.12 K, w2 = 0.3497 | 3.958
328.15 K, w2 = 0.4922 | 3.789

CCC [propane]
[2]
Conditions | surface tension liquid-gas [mN/m]
283.16 K | 8.811
288.17 K | 8.134
293.13 K | 7.568
298.1 K | 6.915
303.12 K | 6.349
